Key:
Experiment in all cases: relative viability (nuclei count vs DMSO), 5 days (fraction); higher = more cells survive
BI-D1870 + Palbociclib = compound: CC(C)CCN1c2nc(Nc3cc(F)c(O)c(F)c3)ncc2N(C)C(=O)C1C [BI-D1870] + CC(=O)c1c(C)c2cnc(Nc3ccc(N4CCNCC4)cn3)nc2n(C2CCCC2)c1=O [Palbociclib] (partner 0.5 µM)
Outline: (§1)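 The day after seeding in 1536-well plates, lung cancer cell lines were treated by pin tool with a single drug, or with a fixed anchor-drug dose together with five library-drug doses (not always all listed) in √10 steps. After 5 days, a combined fix-and-stain solution (final 0.05% Triton X-100, 1% formaldehyde, 1 ug/ml Hoechst) was added. Nuclei counted on 4× images gave relative viability as treated counts over vehicle counts, reported as the median of duplicate plates.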

BI-D1870 + Lapatinib = compound: CC(C)CCN1c2nc(Nc3cc(F)c(O)c(F)c3)ncc2N(C)C(=O)C1C [BI-D1870] + CS(=O)(=O)CCNCc1ccc(-c2ccc3ncnc(Nc4ccc(OCc5cccc(F)c5)c(Cl)c4)c3c2)o1 [Lapatinib] (partner 2 µM)
Outline: as §1

Zebularine + Luminespib = compound: O=c1ncccn1[C@@H]1O[C@H](CO)[C@@H](O)[C@H]1O [Zebularine] + CCNC(=O)c1noc(-c2cc(C(C)C)c(O)cc2O)c1-c1ccc(CN2CCOCC2)cc1 [Luminespib] (partner 0.01 µM)
Outline: as §1

Zebularine + Tozasertib = compound: O=c1ncccn1[C@@H]1O[C@H](CO)[C@@H](O)[C@H]1O [Zebularine] + Cc1cc(Nc2cc(N3CCN(C)CC3)nc(Sc3ccc(NC(=O)C4CC4)cc3)n2)n[nH]1 [Tozasertib] (partner 0.1 µM)
Outline: as §1

Q: How did the relative viability (BI-D1870 + Palbociclib; first compound 0.04 µM) turn out when UMC-11 was run?
A: The relative viability was 0.331.

Q: And the relative viability (BI-D1870 + Palbociclib; first compound 0.1265 µM)?
A: Its relative viability is 0.347.

Q: What about the relative viability (BI-D1870 + Palbociclib; first compound 0.4 µM) of the same cell line?
A: Its relative viability is 0.327.

Q: And the relative viability (BI-D1870 + Palbociclib; first compound 1.265 µM)?
A: The relative viability was 0.309.

Q: And the relative viability (BI-D1870 + Palbociclib; first compound 4 µM)?
A: The relative viability was 0.272.

Q: What about the relative viability (BI-D1870 + Lapatinib; first compound 0.04 µM) of the same cell line?
A: Its relative viability is 1.12.

Q: What about the relative viability (BI-D1870 + Lapatinib; first compound 0.1265 µM) of the same cell line?
A: The relative viability was 0.858.

Q: And the relative viability (BI-D1870 + Lapatinib; first compound 0.4 µM)?
A: Its relative viability is 0.97.

Q: What about the relative viability (BI-D1870 + Lapatinib; first compound 1.265 µM) of the same cell line?
A: The relative viability was 1.08.

Q: And the relative viability (BI-D1870 + Lapatinib; first compound 4 µM)?
A: The relative viability was 0.637.

Q: And the relative viability (Zebularine + Luminespib; first compound 1 µM)?
A: The relative viability was 1.06.

Q: What about the relative viability (Zebularine + Luminespib; first compound 3.162 µM) of the same cell line?
A: The relative viability was 0.996.

Q: And the relative viability (Zebularine + Luminespib; first compound 10 µM)?
A: The relative viability was 0.686.

Q: What about the relative viability (Zebularine + Luminespib; first compound 31.62 µM) of the same cell line?
A: The relative viability was 0.62.

Q: What about the relative viability (Zebularine + Luminespib; first compound 100 µM) of the same cell line?
A: The relative viability was 0.316.

Q: And the relative viability (Zebularine + Tozasertib; first compound 1 µM)?
A: The relative viability was 0.191.

Q: What about the relative viability (Zebularine + Tozasertib; first compound 3.162 µM) of the same cell line?
A: The relative viability was 0.192.

Q: What about the relative viability (Zebularine + Tozasertib; first compound 10 µM) of the same cell line?
A: The relative viability was 0.219.

Q: And the relative viability (Zebularine + Tozasertib; first compound 31.62 µM)?
A: The relative viability was 0.213.

Q: And the relative viability (Zebularine + Tozasertib; first compound 100 µM)?
A: Its relative viability is 0.207.

Reference: the supplement of paper PMC10307832
